Experimental data from US9211278B2, “Composition containing arylnaphthalene lignan derivative for preventing and/or treating dementia” (KOREA INSTITUTE OF SCIENCE AND TECHNOLOGY, priority 2012, dated 2015).

Columns and labels:
[1] = tested on: beta-amyloid (Aβ40, Aβ42) formation; test: Beta-amyloid (Aβ40, Aβ42) formation, ELISA, in APP-transfected HeLa cells; format: cell-based, human; conditions: HeLa-APP cells, various concentrations (FIGS. 1, 2, 6)
Protocol: To test the inhibitory effect of Justicidin A (C1) obtained in Example 2 on the beta-amyloid formation, HeLa cell line transfected with the amyloid precursor protein (APP) driven from human was cultured in DMEM solution (Cat. #11995, Gibco, USA) for use. The cell line was received from Prof. Tae-Wan Kim at Department of Pathology, Columbia University Medical Center, New York, N.Y. 10032, USA.
Specifically, the Justicidin A of Example 2 was added into the cell line culture at the amount indicated in FIG. 1, and then the produced amount of be-amyloid (Aβ40, Aβ42 was measured. Human β-Amyloid[1-40](Aβ40), Human β-Amyloid [1-42](Aβ42) Colorimetric ELISA kit (#KHB3482 and #KHB3442; BioSource International, Inc., U.S.A.) were used to quantify two types of beta-amyloid (Aβ40, Aβ42).
The 5-methoxyJusticidin A (C2) of Example 2 was added into the cell line culture at the amount indicated in FIG. 2, and then the produced amount of be-amyloid was measured according to the method of Example 1.1. The group which was not treated with 5-methoxyjusticidin A was used as a negative control.
The compounds were used at the amount of FIG. 6, and measured for the beta-amyloid (Aβ40, Aβ42) formation according to the same method of Experimental Example <1-1>. The group treated with Justicidin A(C1) was a positive control and the group with no treatment was a negative control.

APP endocytosis = APP endocytosis rate (confocal microscopy, reversible biotinylation); format: cell-based, human
Protocol: To test the endocytosis rate of App, 5×10^5 cells of HeLa cell line transfected with amyloid precursor protein (APP) as the substantially same method as Experimental Examples 6 and 7, seeded on poly-D-lysine coated cover glass and incubated for 24 hours. Then, 1 uM Justicidin A and APP antibody (1:100 diluted, SIG-39320, Covance) treated for 45 min at 4° C., washed out to remove free APP antibodies with culture fluid at three times. The cells were incubated at 37° C., starting endocytosis temperature, for 10, 30, and 60 min, and fixed by 4% paraformaldehyde for 15 min. Then, the cells were permeabilized by 0.1% triton X-100 for 5 min, and APP was marked by secondary fluorescent-labeled antibody (1:200 diluted, A11001, Invitrogen).
The change in the location of APP at various times was measured by confocal microscopy (LSM510, Zeiss, Germany) at 488 nm. […] (0 min). The endocytosis started at 37° C. […]
APP fluorescent intensity remained in plasma membrane compared to APP fluorescent intensity in plasma membrane at 0 min was measured.
For quantitative measurement of APP endocytosis rate, a reversible biotinylation method was used. […]
The result of western blotting was measured by band intensity to show the amount of intracellular APP (FIG. 10b; % internalization) with respect to total maAPP on the cell membrane (FIG. 10a).

transferrin endocytosis = test: Transferrin endocytosis (confocal microscopy); format: cell-based, human; conditions: 1 uM, 10, 30, 60 min at 37° C.
Protocol: The reduced endocytosis rate may be caused by total reduction of endocytosis other than the specific reduction of APP endocytosis rate, because many proteins other than APP can be modified to include the O-glycosylation and the like, by Justicidin A. Thus, the effect of Justicidin A to transferrin, internalized by clathrin-dependent endocytosis like APP was measured, in order to identify selectivity of reducing of APP endocytosis rate by O-glycosylation.
5×10^5 cells of HeLa cell line transfected with amyloid precursor protein (APP) same as above, incubated for 24 hrs, 1 uM Justicidin A treated at 4° C. for 45 min. Then, transferrin was fluorescent-labeled by treating Alexa Fluor 488 conjugated transferrin (25 ug/ml concentration, #T13342, Invitrogen). Transferrin endocytosis was progressed depending on the incubation time 10, 30, 60 min at 37° C., then remained transferrin was washed out by treating pH 5.5 buffer (0.1M sodium acetate, 0.05M NaCl) to cell surface for 5 min
Intracellular location of transferrin was measured by confocal microscopy (LSM510, Zeiss, Germany) at 488 nm.

[2] = tested on: PC12 cell treated with Aβ25-35; test: Protection against cellular toxicity induced by Aβ25-35; format: cell-based; conditions: 30 uM Aβ25-35, 48 hrs
Protocol: To identify the protecting effect against cellular toxicity induced by Aβ, PC12 cell was treated with Justicidin A and Aβ25-35 and measured cell viability. More particularly, 1.5×10^4 cells of PC12 were seeded to each well of 96-well plate, and incubated for 24 hrs. Then, the plate was treated with various concentrations of Justicidin A 30 min, treated 30 uM Aβ25-35, and incubated for 48 hrs. Cell viability was measured by Cell counting kit-8 to show the result FIG. 12b.

Aβ42 = biological target: T1, Aβ42 (Homo sapiens, UniProt P05067); test: Aβ fibril formation, Thioflavin T (ThT) fluorescence assay; format: biochemical
T1 construct: Aβ42 of 42 amino acids
Protocol: Fibril formation by concentrated Aβ is Alzheimer's representative symptom and has been focused on recently. The concentrated Aβ was measured by Thioflavin T (ThT) fluorescence assay, as chemical process was artificially generated.
For formation of Aβ fibril, Aβ42 was melt in 1,1,1,3,3,3-hexafluoro-2-propanol (HFIP) up to 1 mg/ml, then injected to 96-well plate, the concentration of Aβ42 was 10 uM each well, HFIP was evaporated shortly before the beginning of the experiment. Various concentrations of Justicidin A and a certain amount of 5 uM ThT were added, and Fluorescence intensity was measured at various times by Tecan infinite M1000 microplate reader (Tecan, Switzerland).

T1 sequence (P05067 672-713 limits assumed): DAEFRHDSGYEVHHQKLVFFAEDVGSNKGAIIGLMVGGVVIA

With `COc1cc2c(OC)c3c(c(-c4ccc5c(c4)OCO5)c2cc1OC)C(=O)OC3` [Justicidin A] the “inhibition of beta-amyloid (Aβ40, Aβ42) formation” value [1] was “inhibited the beta-amyloid (Aβ40, Aβ42) formation at a concentration-dependent manner”, the “APP endocytosis (reversible biotinylation)” value (APP endocytosis; 1 uM pre-treated, 5, 10, 30 min at 37° C.) was “showed reduced endocytosis of APP” and the “APP endocytosis (APP fluorescent intensity remaining in plasma membrane)” value (APP endocytosis; 1 uM pre-treatment, confocal microscopy, 10, 30, 60 min at 37° C.) was “APP endocytosis was delayed”. The transferrin endocytosis (transferrin endocytosis) was “no effect of Justicidin A to transferrin endocytosis”, the “toxicity induced by Aβ25-35” value [2] was “reduced the toxicity induced by Aβ25-35 in a concentration-dependent manner” and the inhibition at 5 µM (Aβ42; 5 uM, read-out: inhibition of formation of Aβ fibril compared to the control group) was 52%. The “inhibition of formation of Aβ fibril” value (Aβ42; various concentrations, up to 36 hrs) was “inhibited the formation of Aβ fibril in a concentration-dependent manner”.
